Where two headings read alike, the source gives them in different places.
Assays:
[1] = measurement wavelength vicinity of 525 nm; value in document; cited from earlier work
[2] = Two-photon absorption cross-sectional area by Z scanning method; assay type: physicochemical; details: measurement wavelength 550 nm; chloroform solution 1×10^−3
Procedure: Measurement of a two-photon absorption cross-sectional area of the synthesized compound is carried out by Z scanning method described in Mansoor Sheik-Baha et al., IEEE, Journal of Quantum Electronics, 1990, 26, 760. Z scanning method is a widely used method as the measuring method of a non-linear optical constant. In the vicinity of the focus of converged laser beam, a measuring sample is moved along the beam and the change of the quantity of transmitting light is recorded. Since the power density of incident light changes depending upon the position of a sample, the quantity of transmitting light attenuates in the vicinity of the focus in the case where non-linear absorption is present. A two-photon absorption cross-sectional area is computed by fitting the change of the quantity of transmitting light to the theoretical curve predictable from the intensity of incident light, the size of converging spot of light, the thickness of a sample and the concentration of a sample. As the light sources for the measurement of a two-photon absorption cross-sectional area, a Ti-sapphire pulse laser (pulse duration: 100 fs, repetition: 80 MHz, average output: 1 W, peak power: 100 kW) obtained by combining a […] amplifier and light parametric amplifier is used. […]

[3] = Evaluation of solubility of two-photon absorption compound; assay type: physicochemical; details: coating solvent dichloromethane
Procedure: The solubility of the compounds of the invention D-11, D-41 and D-405 and comparative compound R-2 in dichloromethane and 2-butanone is evaluated.

Row | Two-Photon Absorption Cross-Sectional Area [2] [GM] | Solubility (in words) [3] | Compound | Two-Photon Absorption Cross-Sectional Area [1] [GM]
1 |  |  | CCCCCCC(CCCC)Oc1ccc(-c2ccc(-c3ccc(-c4ccc(OC(CCCC)CCCCCC)cc4)cc3)cc2)cc1 (stereo not drawn) [Compound R-1] | 15
2 | 200 | small in solubility | N#Cc1ccc(-c2ccc(-c3ccc(-c4ccc(C(=O)c5ccccc5)cc4)cc3)cc2)cc1 [Compound R-2] | 

— US8449794B2, “Non-resonant two-photon absorption recording material and non-resonant two-photon absorption compound” (FUJIFILM Corporation, priority 2010, dated 2013)
